# Legend:
# Format in all cases: cell-based, C57BL/6N mice
# [1] = system: plasmacytoid dendritic cells (pDC); assay: Cytokine production by plasmacytoid dendritic cells (spleen or bone marrow) after TLR7/TLR9 ligand stimulation, ELISA of culture supernatant; conditions: for IFN-α production accompanying stimulation of pDCs / IL-12 production accompanying stimulation of pDCs: stimulation with TLR7 ligand poly(U) or TLR9 ligand CpG DNA (D19 and 1668), sugar 0.2 w/v % in glucose-free medium
# Method: CD317-positive cells were prepared by magnetic bead sorting (MACS) from spleen cells obtained from C57BL/6N mice (Clea Japan, Inc.), as plasmacytoid dendritic cells (pDC) (FIG. 1(A)). CD11c-positive cells in the CD317-negative cell fraction were then prepared using magnetic beads, as conventional dendritic cells (CDC) (FIG. 1(A)). CD317-positive cells were also prepared using magnetic beads from bone marrow cells obtained from C57BL/6N mice (Clea Japan, Inc.), as bone marrow pDCs (FIG. 1(B)).
# The obtained pDCs and cDCs were inoculated into a 96-well plate using glucose-free PRMI1640 medium with addition of 10 v/v % FCS, 100 μM 2-mercaptoethanol, 50 μg/ml streptomycin and 50 units/ml penicillin G, after which a rare sugar (D-allose, D-allulose or L-allulose) or D-glucose or D-fructose, was added to a final concentration of 0.2 w/v %.
# The pDCs were stimulated with non-stimulating medium and TLR7 ligand (polyuridylic acid at a final concentration of 2.5 μg/ml (Poly(U) (Sigma) mixed with Lipofectamine 2000 (Thermo Fisher Scientific)), 100 nM R848 (InvivoGen), or TLR9 ligand (synthetic DNA (3 μM of D19: 5′-GGtgcatcgatgcagGGGGg-3′ and 0.03 μM of 1668: 5′-[…]-3′ (where uppercase indicates phosphorothioate DNA and lowercase indicates phosphodiester DNA))), and the IFN-α in the culture supernatant after 20 to 24 hours was measured using ELISA by InvivoGen while the IL-12p40 was measured using ELISA by Biolegend.
# [2] = system: intraperitoneal macrophages; assay: TNF-α and nitric oxide production by intraperitoneal macrophages after LPS/IFN-γ stimulation; conditions: 100 ng/ml LPS and 5 ng/ml IFN-γ; sugar in the medium; supernatant after 20 to 24 hours; data not shown
# Method: The obtained pDCs and cDCs were inoculated into a 96-well plate using glucose-free PRMI1640 medium with addition of 10 v/v % FCS, 100 μM 2-mercaptoethanol, 50 μg/ml streptomycin and 50 units/ml penicillin G, after which a rare sugar (D-allose, D-allulose or L-allulose) or D-glucose or D-fructose, was added to a final concentration of 0.2 w/v %. After administering 2 ml of 4 w/v % Brewer thioglycollate medium (Sigma) intraperitoneally to C57BL/6N mice, the intraperitoneal macrophages on the 3rd day were collected and used. After inoculation into the same medium as the DCs, stimulation was with 100 ng/ml of Lipopolysaccharide E. coli O111:B4 (Sigma) and 5 ng/ml of IFN-γ (Biolegend), the TNF-α in the culture supernatant after 20 to 24 hours was measured using ELISA by Biolegend and the nitric oxide was measured using a NO2/NO3 Assay Kit-C II (Colorimetric) (Griess Reagent Kit) (Dojindo Laboratories).
# [3] = system: conventional dendritic cells (cDC); assay: Cytokine production by spleen-derived conventional dendritic cells after stimulation, ELISA of culture supernatant
# Method: CD317-positive cells were prepared by magnetic bead sorting (MACS) from spleen cells obtained from C57BL/6N mice (Clea Japan, Inc.), as plasmacytoid dendritic cells (pDC) (FIG. 1(A)). CD11c-positive cells in the CD317-negative cell fraction were then prepared using magnetic beads, as conventional dendritic cells (CDC) (FIG. 1(A)). CD317-positive cells were also prepared using magnetic beads from bone marrow cells obtained from C57BL/6N mice (Clea Japan, Inc.), as bone marrow pDCs (FIG. 1(B)). The obtained pDCs and cDCs were inoculated into a 96-well plate using glucose-free PRMI1640 medium with addition of 10 v/v % FCS, 100 μM 2-mercaptoethanol, 50 μg/ml streptomycin and 50 units/ml penicillin G, after which a rare sugar (D-allose, D-allulose or L-allulose) or D-glucose or D-fructose, was added to a final concentration of 0.2 w/v %. The cDCs were stimulated with non-stimulating medium, 100 nM of R848 and 1 μM of 1668, and the IL-12p40 in the culture supernatant after 20 to 24 hours was measured using ELISA by Biolegend.
# [4] = supernatant after 20 to 24 hours
# [5] = supernatant after 20 to 24 hours, IL-12p40 ELISA
SMILES,"IFN-α production by pDCs after low molecular weight TLR7 ligand stimulation ([1]; low molecular weight TLR7 ligands including R848 (100 nM), sugar 0.2 w/v %, supernatant after 20 to 24 hours)","IL-12 production by pDCs after low molecular weight TLR7 ligand stimulation ([1]; low molecular weight TLR7 ligands including R848 (100 nM), sugar 0.2 w/v %, supernatant after 20 to 24 hours, IL-12p40 ELISA)","IFN-α production accompanying stimulation of pDCs [1, 4]","IL-12 production accompanying stimulation of pDCs [1, 5]",pDC cytokine production after activation in medium containing D-allose ([1]; summary statement),TNF-α production by macrophages upon lipopolysaccharide (LPS) stimulation [2],nitric oxide production by macrophages upon lipopolysaccharide (LPS) stimulation [2],"IL-12 production by cDCs after CpG DNA (1668) stimulation ([3]; 1 μM 1668, sugar 0.2 w/v %, supernatant after 20 to 24 hours, IL-12p40 ELISA)",cDC cytokine production after activation in medium containing D-allose ([3]; summary statement)
O=C[C@H](O)[C@H](O)[C@H](O)[C@H](O)CO [D-allose],not reduced,not reduced,notably attenuated,notably attenuated,lowered,not attenuated,not attenuated,not lowered,not lowered
O=C(CO)[C@H](O)[C@H](O)[C@H](O)CO [D-allulose],,,not observed,not observed,,not attenuated,not attenuated,,
O=C(CO)[C@@H](O)[C@H](O)[C@H](O)CO [D-fructose],,,not observed,not observed,,not attenuated,not attenuated,,
O=C[C@H](O)[C@@H](O)[C@H](O)[C@H](O)CO [D-glucose],,,not observed,not observed,,,,,
O=C(CO)[C@@H](O)[C@@H](O)[C@@H](O)CO [L-allulose],,,not observed,not observed,,not attenuated,not attenuated,,

# From US20240180937A1, “CYTOKINE PRODUCTION SUPPRESSING COMPOSITION CONTAINING D-ALLOSE AS ACTIVE COMPONENT, AND METHOD OF TREATING OR PREVENTING DISEASE ASSOCIATED WITH CYTOKINE OVERPRODUCTION USING SAME” (NATIONAL UNIVERSITY CORPORATION KAGAWA UNIVERSITY, priority 2021, published 2024)
